This passage reports IC50, EC50 and Kd results from patent publication US11478451B1, “Macrocyclic chlorine substituted indole derivatives” (Bayer Aktiengesellschaft, priority 2017, dated 2022).

Series [1] concerns SUDHL10 cells.
Series [2] relates to MV-4-11 cells. Put plainly: Antiproliferation assay (CellTiter-Glo, 72 h), MV-4-11. It counts as cell-based. Conditions: IC50, median; MV-4-11, 72 h; read-out: Antiproli MV-4-11 [M] median. The method in brief:
(§1)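 Cells were incubated with compounds for 72 h at 37°C. Viability was then read by CellTiter-Glo luminescence, and a parallel day 0 plate read the same way gave the time-zero signal.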
In general terms: In ATP-based viability assays light output follows the ATP content of the culture.

Series [3] has as its target T1, MCL-1 (Homo sapiens (Human), UniProt Q07820, K194A/K197A/R201A). Put plainly: Protein-protein interaction assay MCL-1/Noxa BH3 peptide (MCL-1 assay), TR-FRET. In kind it is binding. Conditions: IC50, median; MCL-1/Noxa BH3 TR-FRET. On the procedure: The dose-dependent inhibition by the compounds described in this invention of the interaction between MCL-1 and the BH3 domain of Noxa (both human) was determined using a steady state binding competition assay with time-resolved fluorescence energy transfer (TR-FRET) readout. […] The MBP-MCL-1 was purchased from Beryllium (Bedford, Mass., USA). The expression and purification of this protein construct has been described elsewhere (DOI:10.1371/journal.pone.0125010). The Noxa BH3-derived peptide can be obtained from e.g. Biosyntan (Berlin, Germany), 50812.1.
For that, 100-fold concentrated DMSO solutions were prepared by serial dilutions (1:3.4) of a 2 mM stock solution in a clear, 384-well microtiter plate (Greiner Bio-One, Frickenhausen, Germany). From there, 50 nl were transferred in a dark test plate (Greiner Bio-One, Frickenhausen, Germany). […] This was followed by a 10-minute incubation step at 22° C. for pre-equilibration of the putative complex between MBP-MCL-1 and the compounds.
(§2) The mixture was incubated in the dark for one hour at 22° C. and then overnight at 4° C.
(§3) The resulting data (ratio) were normalized, taking 0% inhibition as the mean value of control measurements (usually 32 data points) where all reagents were included. In this case 50 nl DMSO were used instead of compounds. […] IC50 values were determined by regression analysis based on a 4 parameter equation (minimum, maximum, IC50, Hill; Y=Max+(Min−Max)/(1+(X/IC50)^Hill) using the Screener Software (Genedata).
On the technique in general: Time-resolved FRET reads energy transfer from a long-lived donor to a nearby acceptor.

In series [4] the test system is SUDHL5 cells.
The target of series [5] is BCL-2 (Homo sapiens (Human), UniProt P10415). Put plainly: Protein-protein interaction assay BCL-2/Bad BH3 peptide (BCL-2 assay), TR-FRET. In kind it is binding. Conditions: IC50, median; BCL-2/Bad BH3 TR-FRET. The protocol: The dose-dependent inhibition by the compounds described in this invention of the interaction between BCL-2 and the BH3 domain of Bad (both human) was determined using a steady state binding competition assay with time-resolved fluorescence energy transfer (TR-FRET) readout.
For that, 100-fold concentrated DMSO solutions were prepared by serial dilutions (1:3.4) of a 2 mM stock solution in a clear, 384-well microtiter plate (Greiner Bio-One, Frickenhausen, Germany). From there, 50 nl were transferred in a dark test plate (Greiner Bio-One, Frickenhausen, Germany). […] This was followed by a 10-minute incubation step at 22° C. for pre-equilibration of the putative complex between His-BCL-2 and the compounds.
as §2, §3

Series [6] relates to SUDHL5 cells. The experiment in a line: Antiproliferation assay (CellTiter-Glo, 72 h), SUDHL5. In kind it is cell-based. Conditions: IC50, median; SUDHL5, 72 h; read-out: Antiproli SUDHL5 [M] (median). Put shortly:
as §1

In series [7] the test system is SUDHL10 cells. The experiment in a line: Induction of caspase-3/7 activity (Caspase-Glo 3/7), SUDHL10. In kind it is cell-based. Conditions: EC50, median; SUDHL10, 3 h treatment. The method in brief: (§4)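 DLBCL lines treated with compounds for 3 h at 37 °C in a humidified incubator; caspase-3/7 activity read with Caspase-Glo 3/7 luminescent reagent. Medium-only background subtracted from all values.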

Series [8] has as its target BCL-XL (Homo sapiens (Human), UniProt Q07817). Put plainly: Protein-protein interaction assay BCL-XL/Bad BH3 peptide (BCL-XL assay), TR-FRET. It counts as binding. Conditions: IC50, median. The protocol:
The dose-dependent inhibition by the compounds described in this invention of the interaction between BCL-XL and the BH3 domain of Bad (both human) was determined using a steady state binding competition assay with time-resolved fluorescence energy transfer (TR-FRET) readout.
For that, 100-fold concentrated DMSO solutions were prepared by serial dilutions (1:3.4) of a 2 mM stock solution in a clear, 384-well microtiter plate (Greiner Bio-One, Frickenhausen, Germany). From there, 50 nl were transferred in a dark test plate (Greiner Bio-One, Frickenhausen, Germany). […] This was followed by a 10-minute incubation step at 22° C. for pre-equilibration of the putative complex between His-BCL-XL and the compounds.
as §2, §3

For series [9], the system named is SUDHL5 cells. The experiment in a line: Induction of caspase-3/7 activity (Caspase-Glo 3/7), SUDHL5. In kind it is cell-based. Conditions: EC50, median; SUDHL5, 3 h treatment. The method in brief: as §4
For series [10], the system named is KYSE-180 cells. Put plainly: Antiproliferation assay (CellTiter-Glo, 72 h), KYSE-180. In kind it is cell-based. Conditions: IC50, median; KYSE-180, 72 h; read-out: Antiproli KYSE-180 [M] median. The protocol:
(§5) Assessment of the Anti-Proliferative Effect of Compounds in Different Cell Lines
(§6) The impact of compounds on the proliferation of different cell lines was assessed using the CellTiter-Glo® Luminescent Cell Viability reagent from Promega (G7573).
(§7) In parallel, cells were plated in a reference (day 0) plate for time zero determination.
(§8) Rim wells were excluded. The cells were incubated for 72 h hours in a humidified incubator at 37° C. The day 0 plate was measured by adding 30 μL/well of CTG solution (CellTiter-Glo® Luminescent Cell Viability reagent, Promega G7573) to time zero wells in the reference plate followed by a 10 minutes incubation and luminescence reading at 0.1 ms. using the PHERAstar FS microplate reader (BMG Labtech).
(§9) After 72 h incubation, the treated plates were measured in the same way as the day 0 plate mentioned above.

In series [11] the test system is SNU-389 cells. The experiment in a line: Antiproliferation assay (CellTiter-Glo, 72 h), SNU-389. Conditions: IC50, median; SNU-389, 72 h; read-out: Antiproli SNU-389 [M] median. It counts as cell-based. Put shortly:
as §1

The test system of series [12] is A2058 cells. The experiment in a line: Antiproliferation assay (CellTiter-Glo, 72 h), A2058. Conditions: IC50, median; A2058, 72 h; read-out: Antiproli A2058 [M] median. In kind it is cell-based. On the procedure:
as §5, §6, §7, §8, §9

For series [13], the system named is HMC-1-8 cells. Put plainly: Antiproliferation assay (CellTiter-Glo, 72 h), HMC-1-8. Conditions: IC50, median; HMC-1-8, 72 h; read-out: Antiproli HMC-1-8 [M] median. It counts as cell-based. Put shortly: as §1
Series [14] deals with AMO-1 cells. Put plainly: Antiproliferation assay (CellTiter-Glo, 72 h), AMO-1. It counts as cell-based. Conditions: IC50, median; AMO-1, 72 h; read-out: Antiproli AMO-1 [M] median. Put shortly:
as §1

Series [15] concerns T47D cells. The experiment in a line: Antiproliferation assay (CellTiter-Glo, 72 h), T47D. Conditions: IC50, median, T47D (head printed T4713), read-out: Antiproli T4713 [M] median. In kind it is cell-based. The protocol:
as §5, §6, §7, §8, §9

In series [16] the test system is SUDHL10 cells. The experiment in a line: Antiproliferation assay (CellTiter-Glo, 72 h), SUDHL10. In kind it is cell-based. Conditions: IC50, median; SUDHL10, 72 h; read-out: Antiproli SUDHL10 [M] (median). On the procedure: as §5, §6, §7, §8, §9
The test system of series [17] is DMS-114 cells. The experiment in a line: Antiproliferation assay (CellTiter-Glo, 72 h), DMS-114. It counts as cell-based. Conditions: IC50, median; DMS-114, 72 h; read-out: Antiproli DMS-114 [M] median. Put shortly:
as §1

Series [18] relates to SK-BR-3 cells. Put plainly: Antiproliferation assay (CellTiter-Glo, 72 h), SK-BR-3. In kind it is cell-based. Conditions: IC50, median; SK-BR-3, 72 h; read-out: Antiproli SK-BR-3 [M] median. The protocol: as §5, §6, §7, §8, §9
Series [19] relates to SUDHL10 cells. Put plainly: Induction of cytotoxicity (CellTiter-Glo, 5 h), SUDHL10. Conditions: read-out: Cytotox SUDHL10 [M] (median); IC50, median; SUDHL10, 5 h.
Series [20] addresses T1, MCL-1. The experiment in a line: Protein-compound interaction assay (SPR assay). In kind it is binding. Conditions: equilibrium dissociation constant, geometric mean, SPR 25° C. An excerpt: Protein-Compound Interaction Assay (SPR Assay)
The ability of the compounds described in this invention to bind to MCL-1 may be determined using surface plasmon resonance (SPR). This allows for the quantification of binding in terms of the equilibrium dissociation constant (KD [M]), as well as association and dissociation rate constants (kon [1/M 1/s] and koff [1/s], respectively). The measurements may be performed using Biacore® T200 or Biacore® S200 instruments (GE Healthcare).
Subsequently, a solution of 1 M ethanolamine-HCl (GE Healthcare) was injected to block unreacted groups, resulting in approximately 400-2500 response units (RU) of immobilized protein. A reference surface was generated by treatment with NHS-EDC and ethanolamine-HCl.
The double-referenced sensorgrams were fit to a simple reversible Langmuir 1:1 reaction mechanism as implemented in the Biacore® T200 and S200 evaluation software (T200 evaluation software version 2.0 and S200 evaluation software version 1.0, GE Healthcare).
On the technique in general: SPR reads the build-up and loss of mass on a sensor chip optically.

Several values for one entry are separate records, joined by “and”; a condition that tells them apart may be missing. Equal values may be shown once. Where a name gives a salt, the structure may show the parent alone. Read-outs that look alike come from different tables or passages of the source.

Chain of BCL-2 (P10415 1-211): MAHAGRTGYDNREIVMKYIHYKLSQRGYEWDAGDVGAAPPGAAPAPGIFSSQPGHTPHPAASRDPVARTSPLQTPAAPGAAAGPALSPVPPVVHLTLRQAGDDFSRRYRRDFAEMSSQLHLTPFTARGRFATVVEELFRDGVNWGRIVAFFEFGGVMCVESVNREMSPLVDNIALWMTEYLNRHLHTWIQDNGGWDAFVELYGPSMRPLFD
T1 sequence (Q07820 whole entry K194A/K197A/R201A, looked up, the tested form may be a part): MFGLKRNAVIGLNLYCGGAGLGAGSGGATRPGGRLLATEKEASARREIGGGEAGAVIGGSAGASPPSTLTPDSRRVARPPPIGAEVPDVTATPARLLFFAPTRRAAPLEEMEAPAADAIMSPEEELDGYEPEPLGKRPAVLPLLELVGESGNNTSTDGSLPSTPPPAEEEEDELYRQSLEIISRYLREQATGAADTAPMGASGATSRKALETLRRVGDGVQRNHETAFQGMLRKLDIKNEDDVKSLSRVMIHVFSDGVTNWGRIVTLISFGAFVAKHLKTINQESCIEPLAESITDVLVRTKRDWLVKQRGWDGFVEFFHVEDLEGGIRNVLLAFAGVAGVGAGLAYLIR
Chain of BCL-XL (Q07817 1-212): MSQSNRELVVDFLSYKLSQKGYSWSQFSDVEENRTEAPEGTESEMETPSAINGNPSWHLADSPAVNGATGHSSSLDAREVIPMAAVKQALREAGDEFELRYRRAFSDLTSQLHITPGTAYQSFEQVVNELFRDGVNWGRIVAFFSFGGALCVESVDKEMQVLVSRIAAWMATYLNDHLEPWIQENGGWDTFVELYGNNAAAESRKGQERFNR

As to `CCc1c2c(nn1C)COC/C=C\Cn1c(C(=O)O)c(CCCOc3cccc4ccccc34)c3ccc(Cl)c-2c31` (racemic) [Example 18, (rac)-(11Z)-4-chloro-3-ethyl-2-methyl-7-[3-(naphthalen-1-yloxy)propyl]-2,10,13,15-tetrahydropyrazolo[4′,3′:9,10][1,6]oxazacycloundecino[8,7,6-hi]indole-8-carboxylic acid], the IC50 was 1300 nM in [1]; 4.71e-06 M in [2]; 1.3 nM in series [3]; 1200 nM in series [4]; > 20000 nM and 19000 nM and 20000 nM in series [5]; 1.4e-06 M in series [6]. The IC50 in series [8] is > 20000 nM. The figures for the EC50 in series [7] and in series [9] were 1300 nM and 1100 nM, respectively.
For the compound `Cc1c2c(nn1C)CN(C)CCCCn1c(C(=O)O)c(CCCOc3cccc4ccccc34)c3ccc(Cl)c-2c31` (single isomer, unassigned; enantiomer 1) [Example 12, (+)-4-chloro-2,3,14-trimethyl-7-[3-(naphthalen-1-yloxy)propyl]-10,11,12,13,14,15-hexahydro-2H-pyrazolo[3′,4′:8,9][1,6]diazacycloundecino[10,11,1-hi]indole-8-carboxylic acid-N-ethylethanamine salt (Enantiomer 1)], the IC50 in [10] worked out at 3.79e-06 M; in series [11], 7.22e-07 M; in series [12], 4.83e-06 M; in series [2], 4.41e-07 M; in series [13] it was 1.6e-06 M; in series [14] it was 3.3e-07 M. Moreover, the IC50 in series [15] was 7.1e-06 M; in series [16] it was 1.4e-07 M; in series [17], 1.32e-06 M; in series [6], 1.7e-07 M; in series [18] it was 6.67e-07 M; in series [19], 1.4e-07 M.
With `Cc1c2c(nn1C)CN(C)CCCCn1c(C(=O)O)c(CCCOc3cccc4cc(F)ccc34)c3ccc(Cl)c-2c31` (single isomer, unassigned; enantiomer 1) [Example 31, (+)-4-chloro-7-{3-[(6-fluoronaphthalen-1-yl)oxy]propyl}-2,3,14-trimethyl-10,11,12,13,14,15-hexahydro-2H-pyrazolo[3′,4′:8,9][1,6]diazacycloundecino[10,11,1-hi]indole-8-carboxylic acid-N-ethylethanamine salt (Enantiomer 1)], in [20], binding was characterised by a dissociation constant (Kd) of 0.43 nM. The IC50 in [2] was found to be 2.75e-07 M; in series [13] it was 1.9e-06 M; in [14] it was 1.7e-07 M.

One may read the EC50 as the concentration that produces a half-maximal response. High values mean lower potency in that assay, low ones higher potency in that assay. One may read the Kd as a measure of binding affinity in units of concentration.
